We go through four molecules from ChEMBL document CHEMBL3886673, “Tetracyclic CDK9 kinase inhibitors” (2016).

In this assay the target is Cyclin-dependent kinase 9 (Homo sapiens, UniProt P50750). The assay can be described thus: LANCE ULight TR-FRET Kinase Assay : CDK9 enzyme activities were measured using LANCE ULight TR-FRET kinase assay reagents (PerkinElmer, Waltham, Mass.). Compounds were diluted in 100% DMSO then diluted with 1:10 in serine/threonine kinase assay buffer containing 20 mM HEPES, 10 mM MgCl2, 100 mM Na3VO4, and 0.0075% Triton X-100. Equal volume of the compound dilutions was added to a final reaction mixture containing LANCE detection buffer (PerkinElmer CR97-100), 100 nM ULight MBP (PerkinElmer TRF0109M), 1000 μM ATP, and CDK9/Cyclin T1 (Carna Biosciences 04-110). The kinase reaction was carried out for 1 hour before addition of stopping buffer to a final of 20 mM EDTA and 0.5 nM of LANCE Ultra Europium anti-phospho-MBP antibody (PerkinElmer TRF0201M) in LANCE detection buffer. The reaction was incubated for 1 hour and the signal was read in Envision in TR-FRET mode (excitation at 320 nm and emission at 615/665 nm). (In general: Time-resolved FRET reads energy transfer from a long-lived donor to a nearby acceptor.)
Chain of Cyclin-dependent kinase 9 (P50750 whole entry): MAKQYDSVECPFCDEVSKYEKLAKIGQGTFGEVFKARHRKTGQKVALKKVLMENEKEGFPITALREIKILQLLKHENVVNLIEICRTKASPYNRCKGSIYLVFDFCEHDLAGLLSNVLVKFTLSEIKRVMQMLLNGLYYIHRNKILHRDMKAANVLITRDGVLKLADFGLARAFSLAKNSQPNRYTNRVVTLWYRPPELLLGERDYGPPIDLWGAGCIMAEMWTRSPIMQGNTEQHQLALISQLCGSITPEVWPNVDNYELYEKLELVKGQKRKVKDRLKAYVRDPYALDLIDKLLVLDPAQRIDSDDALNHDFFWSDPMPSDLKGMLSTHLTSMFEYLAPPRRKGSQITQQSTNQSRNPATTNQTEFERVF

With `CN(CCO)C(=O)CN1CC=C(c2[nH]c3ncc(F)c4c3c2CN(C)c2ccc(F)cc2-4)CC1`, the IC50 was 100 nM. To `CN1Cc2c(C3=CCN(C(=O)OC(C)(C)C)CC3)[nH]c3nccc(c23)-c2cc(F)ccc21` belongs 230 nM; to `CNC(=O)N1CC=C(c2[nH]c3nccc4c3c2CN(C)c2ccc(F)cc2-4)CC1`, 30 nM. Take `CN1Cc2c(C3=CCN(S(C)(=O)=O)CC3)[nH]c3ncc(F)c(c23)-c2cc(F)ccc21`: the IC50 was found to be 38 nM.

In general, IC50 refers to the midpoint of a concentration-inhibition curve.
